Data on four molecules can be found in patent US20050020519A1, “Modulation of insulin-regulated aminopeptidase (irap)/angiotensin iv (at4) receptor activity” (priority 2001, published 2005).

Read-outs that look alike come from different tables or passages of the source. Where a SMILES comes first, the peptide text is derived from it.

The test system of series [1] is ERK1/2 phosphorylation.
Description: The ability of AT4 ligands to stimiuladte MAPK phosphorylation directly was investigated in HEK293 cells transfected with human IRAP. HEK293 cells were transfected with pCI-IRAP or with empty vector, plated on to 12-well plates at a density of 60,000 cells/well and grown in complete medium containing 0.2% fetal calf serum. […] The proteins were then transferred on to nitrocellulose membranes and incubated with phospho-MAPK (p44/42) antibodies and visualised with HRP-conjugated secondary antibody, using the ECL-plus western blot detection system.
Another series concerns 3T3L1 cells. As to the kind of experiment: 2-deoxyglucose uptake in differentiated 3T3L1 adipocytes. Conditions: for basal glucose uptake: no insulin, untreated 3.3±0.67.
The test system of series [2] is ERK1/2 phosphorylation. As to the kind of experiment: ERK1/2 phosphorylation in rat hippocampal slices (Western blot). To be noted: 10^−8M, 30 min. The series is classed as cell-based. The method, then: The potential of IRAP/AT4 ligands to activate MAPK or CREB was initially investigated on rat hippocampal slices. Rats were killed by decapitation and the hippocampi removed, four hundred μm thick slices cut and incubated in aCSF. […] Slices were then lysed in 200 μl of ice-cold lysis buffer (10 mM Tris-HCl pH 7.5, 50 mM NaCl, 1% triton X-100, 30 mM sodium pyrophosphate, 50 mM NaF, 5 μM ZnCl2, 0.1 mM sodium orthovanadate, 1 mM DTT, 5 nM okadaic acid, 1×Boehringer Protease inhibitor cocktail) and centrifuged at full speed. The lysates were then heated at 95° C. for 10 min in 6×SDS loading buffer and the proteins (30 μg per lane) resolved on 7.5% SDS-poylacrylamide gels. After transfer of proteins to PVDF membranes, blots were probed overnight at 4° C. with anti phospho-p44/42 MAP kinase (Thr202/Tyr204) antibody and detected by chemiluminescence using ECL blotting detection reagents and a Fuji LAS-1000.

Series [3] relates to rats. Conditions: cited from earlier work.
The test system of a further series is rat hippocampal slices. Kind of series: Potassium-evoked ^3H-choline release from rat hippocampal slices. Conditions: at 10^−7M. Type of series: cell-based. As for the experimental part: To determine the effect of IRAP inhibitors an acetylcholine release for rat hippocampal slices in vitro, rats were anaesthetized with sodium pentobarbitone, decapitated and the brain rapidly extracted and put on ice. The two sides of the hippocampus were then dissected, and stored in Krebs buffer on ice. The tissues were sectioned into 400 μm slices using a McI1wain slicer, and incubated with 10 μM of ^3H-choline in Krebs buffer for 20 min at 37° C. Following the incubation, the sections were transferred to Brandel superfusion chambers filled with carbogenated Krebs buffer, pH7.0 containing […] hemicholinium HC-3 to prevent choline reuptake. The slices were washed for 60 min at 37° C. with Krebs buffer at a flow rate of 500 μl/min. Superfusate samples were collected at 5 min intervals for the duration of the experiment. After a stable baseline was established, the hippocampal slices were depolarised by the addition of 30 mM KCl to the Krebs buffer and infused for 4 min (stimulation period S1). The tissue was then allowed to recover for 25 min before the next stimulation period (S2). To test the effect of […] […] Fractional ^3H-choline release, expressed as a ratio of S2/S1, was then calculated for each of the different peptides at the different doses.

For a further series, the system named is NG108-15 cells. Kind of series: ^3H-thymidine incorporation in NG108-15 cells. Type of series: cell-based, rat-mouse hybrid. The method, then: (§1) NG108-15 and SK-N-MC cells were cultured in DMEM supplemented with 10% heat-inactivated FCS, 2% HAT supplement, and 100 U/ml penicillin/streptomycin. Cells were routinely used between passages 20 and 30.
(§2) Cells were plated at a density of 3×10^4 cells/well in 24 well Falcon plates that had been coated with 0.1 mg/ml poly-L-lysine hydrobromide. The cells were allowed to adhere overnight, and then serum deprived for 48 h before being treated with […] (SEQ ID NO:2) and/or Ang IV (10^−10 to 10^−6 M) for 24 h in medium with or without serum. Five hours before the end of the experiment 1 μCi of ^3H-thymidine was added to each well. At the completion of the incubation, cells were washed twice with 1 ml of PBS at 4° C., followed by 5% trichloroacetic acid at 4° C. for 30 min, which was aspirated before solubilizing the cells in 1 ml 0.25 M NaOH and 0.1% SDS for 30 min at 37° C. Samples were then collected into 5 ml of Ready Value scintillation fluid and ^3H measured in a liquid scintillation counter.

In another series the test system is SK-N-MC cells. As to the kind of experiment: [^3H]-thymidine uptake in SK-N-MC cells. Conditions: Ang IV 10^−10-10^−7 M; LVVYPWTQRF 10^−10-10^−6 M. Type of series: cell-based. The method, then: as §1, §2
The conditions of series [4]: conditions similar to the DNA synthesis experiments.
Series [5] deals with rats. To be noted: intracerebroventricular dose 1 nmol; cited from earlier work.
Series [6] concerns the target T1, human insulin-regulated aminopeptidase (IRAP) / angiotensin IV (AT4) receptor (human, UniProt Q9UIQ6 1-1025). Kind of series: cell-based or functional assay.
Series [7] deals with T1, human insulin-regulated aminopeptidase …. As to the kind of experiment: radioligand displacement of 125I-Nle-Ang IV.
Series [8] shares this target. Kind of series: competitive inhibition of L-leucine-β-naphthylamide cleavage by solubilised membranes of IRAP-transfected HEK 293 cells; Ki from IC50=Ki(1+[S]/Km).
Series [9] has the same target. Kind of series: competition with 125I-Nle1 Ang IV on IRAP-transfected cells.

T1 sequence (Q9UIQ6 whole entry): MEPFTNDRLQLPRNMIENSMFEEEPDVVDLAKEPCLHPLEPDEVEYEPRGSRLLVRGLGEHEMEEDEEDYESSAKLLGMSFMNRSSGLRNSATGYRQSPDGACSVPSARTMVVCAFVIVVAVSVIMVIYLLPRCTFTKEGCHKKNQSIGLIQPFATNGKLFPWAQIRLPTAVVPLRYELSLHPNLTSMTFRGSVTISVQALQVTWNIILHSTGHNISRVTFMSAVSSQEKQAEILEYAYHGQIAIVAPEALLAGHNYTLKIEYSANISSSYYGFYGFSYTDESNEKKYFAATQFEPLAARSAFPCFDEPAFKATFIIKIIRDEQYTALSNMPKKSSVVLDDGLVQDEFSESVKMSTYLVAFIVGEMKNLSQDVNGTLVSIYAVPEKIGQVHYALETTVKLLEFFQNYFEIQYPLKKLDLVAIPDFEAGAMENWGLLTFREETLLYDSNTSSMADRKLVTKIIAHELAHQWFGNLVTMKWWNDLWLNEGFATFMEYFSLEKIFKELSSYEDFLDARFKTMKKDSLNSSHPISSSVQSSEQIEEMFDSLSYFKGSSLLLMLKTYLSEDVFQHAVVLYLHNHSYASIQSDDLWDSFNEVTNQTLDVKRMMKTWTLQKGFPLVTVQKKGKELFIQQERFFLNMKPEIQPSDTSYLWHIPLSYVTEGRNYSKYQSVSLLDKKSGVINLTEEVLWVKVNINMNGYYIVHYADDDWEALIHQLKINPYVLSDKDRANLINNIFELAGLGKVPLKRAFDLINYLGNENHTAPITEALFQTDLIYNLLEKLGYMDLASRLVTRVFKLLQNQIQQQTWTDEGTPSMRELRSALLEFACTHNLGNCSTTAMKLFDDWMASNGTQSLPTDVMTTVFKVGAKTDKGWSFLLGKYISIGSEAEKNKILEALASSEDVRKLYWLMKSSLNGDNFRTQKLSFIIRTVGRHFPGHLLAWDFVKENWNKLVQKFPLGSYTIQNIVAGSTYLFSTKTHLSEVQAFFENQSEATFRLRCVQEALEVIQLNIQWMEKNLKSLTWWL
Description for 3T3L1 cells: The effect of IRAP inhibitors on the regulation of glucose uptake was determined in 3T3L1 cells. 3T3L1 fibroblasts were differentiated by the addition of DMEM containing 5% fetal calf serum, 4 μg/ml insulin, 0.25 mM dexamethasone and 0.5 mM 3-isobutyl-1-methyl-xanthine. […] The reaction was stopped after 10 min by washing the cells in PBS. The cells were then solubilized in 0.5 N NaOH and counted.

`CCCC[C@H](N)C(=O)N[C@@H](Cc1ccc(O)cc1)C(=O)N[C@H](C(=O)N[C@@H](Cc1c[nH]cn1)C(=O)N1CCC[C@H]1C(=O)N[C@@H](Cc1ccccc1)C(=O)O)[C@@H](C)CC` [Nle^1-Ang IV, Nle′-YIHPF] (HELM PEPTIDE1{[Nle].Y.I.H.P.F}$$$$V2.0; N-terminus and C-terminus assumed): the ERK1/2 phosphorylation entry in the series on ERK1/2 phosphorylation [1] is given as “induced the phosphorylation of ERK1/2”; in the series on ERK1/2 phosphorylation [2], “induced phosphorylation of ERK1/2”. In addition, the insulin-stimulated glucose uptake is 18.3 ± 2.39 pmol/min/well in the series on 3T3L1 cells (10^−6 M peptide with 0.7 nM insulin), 23.02 ± 1.52 pmol/min/well in the series with 3T3L1 cells (10^−6 M peptide with 70 nM insulin), 12.2 ± 2.29 pmol/min/well in the series with 3T3L1 cells (10^−7 M peptide with 0.7 nM insulin) and 22.99 ± 2.8 pmol/min/well in the series on 3T3L1 cells (10^−7 M peptide with 70 nM insulin). For the same molecule, the basal glucose uptake in the series on 3T3L1 cells (10^−6 M) was determined as 7.6±1.21 pmol/min/well; in the series on 3T3L1 cells (10^−7 M), 7.2±1.79 pmol/min/well. In addition, in the series with 3T3L1 cells (both concentrations (10^−7 and 10^−6 M)), the “increase of basal glucose uptake” value is listed as “two-fold”. In addition, in the series on rats [3] (chronic infusion (6 days), 0.1 to 0.5 nmol/h, lateral ventricle), the “performance in the swim maze task” value is “enhanced performance”. The “memory deficits induced by scopolamine” value in the series with rats [3] (given acutely into the lateral ventricles) is “reversed the memory deficits”.

With `CC[C@H](C)[C@H](NC(=O)[C@H](Cc1ccc(O)cc1)NC(=O)[C@@H](N)C(C)C)C(=O)N[C@@H](Cc1cnc[nH]1)C(=O)N1CCC[C@H]1C(=O)N[C@@H](Cc1ccccc1)C(=O)O` [Ang IV, VYIHPF], the “maximum effect on potassium-evoked ^3H-choline release” value in the series with rat hippocampal slices was 150 % of control. Moreover, the “stimulation of DNA synthesis” value in the series on NG108-15 cells (10^−10 to 10^−6 M, alone) is “did not stimulate DNA synthesis”. For the same molecule, the “effect on LVVYPWTQRF-stimulated ^3H-thymidine incorporation” value with NG108-15 cells (concomitant 10^−6 M Ang IV) is “completely abolished”. Also, the “increase of [^3H]-thymidine uptake” value in the series on SK-N-MC cells is listed as “up to 72 % above control levels”. Also, the “degradation of the peptide” value in series [4] was “some degradation”. In addition, the “latency in re-entering the dark chamber after an aversive stimulus” value in the series on rats [5] is on record as “increased the latency”.

B1: LVV-hemorphin 7 (LVVYPWTQRF) (peptide)
peptide: LVVYPWTQRF
notes: Globin fragment purified from sheep cerebral cortex; synthetic peptide used in the assays; also called LVV-H7; LV-H7
Consider B1, for which the “IC50 inhibition leucine β-naphthylamide” value in [6] came out at 1500 nM. This molecule also yielded an IC50 in series [7] of 140 nM. Moreover, the Ki in [8] was 845 nM.

B2: KYLPGPLQ (complexin II fragment) (peptide)
peptide: KYLPGPLQ
notes: Purified from blood-free sheep cerebral cortex; synthetic peptide used in the assays; also called complexin fragment
B2: the binding result in series [9] is reported as “binds”.
